From US12428406B2 (PMV Pharmaceuticals, Inc., priority 2019, dated 2025)

biological target: T1, p53 Y220C (Homo sapiens, UniProt P04637, Y220C); assay: In vitro DNA binding activity assay (HTRF / TR-FRET): stabilization of p53 Y220C and increase of its DNA binding activity; format: biochemical; conditions: recombinant His-tagged p53 Y220C DNA binding domain (aa 94-312), biotin-labeled consensus DNA, incubated at 27° C. or 29° C. for 60 min
T1 construct: The recombinant protein was a truncation mutant containing only amino acids 94-312 of p53; made in house; host or cells: E. coli
T1 sequence (P04637 94-312, change not shown): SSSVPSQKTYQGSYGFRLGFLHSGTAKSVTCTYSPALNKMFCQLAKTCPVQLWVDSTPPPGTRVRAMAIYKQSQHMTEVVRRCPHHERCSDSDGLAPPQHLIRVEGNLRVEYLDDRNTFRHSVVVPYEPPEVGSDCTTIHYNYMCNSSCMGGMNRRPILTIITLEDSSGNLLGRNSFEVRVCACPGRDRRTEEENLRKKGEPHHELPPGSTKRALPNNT
Outline: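 Homogeneous time-resolved fluorescence with E. coli-derived p53 Y220C and biotinylated consensus DNA. Room-temperature incubations of 15 and 20 min precede reading. SC150 denotes the compound concentration required for 50% increased DNA binding.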

| SMILES | SC150 (concentration of the compound required to increase the DNA binding activity by 50%) |
| --- | --- |
| CNC(=O)c1ccc(NCC#Cc2cc3c(N[C@H]4CC[C@](C)(O)CC4)cccc3n2CC(F)(F)F)c(OC)c1 [Compound 31A, 3-methoxy-N-methyl-4-{[3-(4-{[(1R,4R)-4-hydroxy-4-methylcyclohexyl]amino}-1-(2,2,2-trifluoroethyl)-1H-indol-2-yl)prop-2-yn-1-yl]amino}benzamide] | + (+ = 0 μM ≤ SC150 < 0.05 μM) |
| CNC(=O)c1ccc(NCC#Cc2cc3c(N[C@H]4CC[C@@](C)(O)CC4)cccc3n2CC(F)(F)F)c(OC)c1 [Compound 32A, 3-methoxy-N-methyl-4-{[3-(4-{[(1S,4S)-4-hydroxy-4-methylcyclohexyl]amino}-1-(2,2,2-trifluoroethyl)-1H-indol-2-yl)prop-2-yn-1-yl]amino}benzamide] | + (+ = 0 μM ≤ SC150 < 0.05 μM) |
| CNC(=O)c1ccc(NCC#Cc2cc3c(NC4CCC(C#N)CC4)cccc3n2CC(F)(F)F)c(OC)c1 (centres unmarked) [Compound 33A, 4-[(3-{4-[(4-cyanocyclohexyl)amino]-1-(2,2,2-trifluoroethyl)-1H-indol-2-yl}prop-2-yn-1-yl)amino]-3-methoxy-N-methylbenzamide] | + (+ = 0 μM ≤ SC150 < 0.05 μM) |
| CNC(=O)c1ccc(NCC#Cc2cc3c(N[C@H]4CC[C@H](C#N)CC4)cccc3n2CC(F)(F)F)c(OC)c1 [Compound 34A, 3-methoxy-N-methyl-4-{[3-(4-{[(1R,4R)-4-cyanocyclohexyl]amino}-1-(2,2,2-trifluoroethyl)-1H-indol-2-yl)prop-2-yn-1-yl]amino}benzamide] | + (+ = 0 μM ≤ SC150 < 0.05 μM) |
| CNC(=O)c1ccc(NCC#Cc2cc3c(N[C@H]4CC[C@@H](C#N)CC4)cccc3n2CC(F)(F)F)c(OC)c1 [Compound 35A, 3-methoxy-N-methyl-4-{[3-(4-{[(1S,4S)-4-cyanocyclohexyl]amino}-1-(2,2,2-trifluoroethyl)-1H-indol-2-yl)prop-2-yn-1-yl]amino}benzamide] | + (+ = 0 μM ≤ SC150 < 0.05 μM) |
| COc1cc(S(C)(=O)=O)ccc1NCC#Cc1cc2c(NC3CCCC(C(=O)O)C3)cccc2n1CC(F)(F)F (centres unmarked) [Compound 36A, 3-[(2-{3-[(4-methane-sulfonyl-2-methoxy-phenyl)amino]prop-1-yn-1-yl}-1-(2,2,2-trifluoroethyl)-1H-indol-4-yl)amino] cyclohexane-1-carboxylic acid] | +++ (+++ = 0.1 μM ≤ SC150 < 0.2 μM) |
| COc1cc(S(C)(=O)=O)ccc1NCC#Cc1cc2c(NC3CCC(N)CC3F)cccc2n1CC(F)(F)F (centres unmarked) [Compound 37A] | + (+ = 0 μM ≤ SC150 < 0.05 μM) |
| CNC1CCC(Nc2cccc3c2cc(C#CCNc2ccc(S(C)(=O)=O)cc2OC)n3CC(F)(F)F)C(F)C1 (centres unmarked) [Compound 39A] | + (+ = 0 μM ≤ SC150 < 0.05 μM) |
| COc1cc(S(C)(=O)=O)ccc1NCC#Cc1cc2c(NC3CCC(N(C)C)CC3F)cccc2n1CC(F)(F)F (centres unmarked) [Compound 41A] | + (+ = 0 μM ≤ SC150 < 0.05 μM) |
| COc1cc(S(C)(=O)=O)ccc1NCC#Cc1cc2c(N[C@@H]3CCC(O)C[C@@H]3F)cccc2n1CC(F)(F)F (stereo partly drawn) [Compound 43A, (3S,4R)-3-fluoro-4-[(2-{3-[(4-methanesulfonyl-2-methoxyphenyl)amino]prop-1-yn-1-yl}-1-(2,2,2-trifluoroethyl)-1H-indol-4-yl)amino]cyclohexan-1-ol] | + (+ = 0 μM ≤ SC150 < 0.05 μM) |
| COc1cc(S(N)(=O)=O)ccc1NCC#Cc1cc2c(N[C@H]3CC[C@H](N(CCO)CCO)CC3)cccc2n1CC(F)(F)F [Compound 44A, 3-methoxy-4-{[3-(4-{[(1R,4R)-4-[bis(2-hydroxyethyl)amino]cyclohexyl]amino}-1-(2,2,2-trifluoroethyl)-1H-indol-2-yl)prop-2-yn-1-yl]amino}benzene-1-sulfonamide] | + (+ = 0 μM ≤ SC150 < 0.05 μM) |
| COc1cc(S(N)(=O)=O)ccc1NCC#Cc1cc2c(N[C@H]3CC[C@@H](N(CCO)CCO)CC3)cccc2n1CC(F)(F)F [Compound 45A, 3-methoxy-4-{[3-(4-{[(1S,4S)-4-[bis(2-hydroxyethyl)amino]cyclohexyl]amino}-1-(2,2,2-trifluoroethyl)-1H-indol-2-yl)prop-2-yn-1-yl]amino}benzene-1-sulfonamide] | + (+ = 0 μM ≤ SC150 < 0.05 μM) |
| COc1cc(S(=O)(=O)Nc2ccon2)ccc1NCC#Cc1cc2c(N[C@H]3CC[C@H](N(C)C)CC3)cccc2n1CC(F)(F)F [Compound 48A, 3-methoxy-N-(1,2-oxazol-3-yl)-4-{[3-(4-{[(1R,4R)-4-(dimethylamino)cyclo-hexyl]amino}-l-(2,2,2-trifluoroethyl)-1H-indol-2-yl)prop-2-yn-1-yl]amino}benzene-1-sulfonamide] | + (+ = 0 μM ≤ SC150 < 0.05 μM) |
| COc1cc(S(=O)(=O)NC2CCOCC2)ccc1NCC#Cc1cc2c(N[C@H]3CC[C@H](N(C)C)CC3)cccc2n1CC(F)(F)F [Compound 49A, 3-methoxy-N-(oxan-4-yl)-4-{[3-(4-{[(1R,4R)-4-(dimethylamino)cyclohexyl]amino}-1-(2,2,2-trifluoroethyl)-1H-indol-2-yl)prop-2-yn-1-yl]amino}benzene-1-sulfonamide] | + (+ = 0 μM ≤ SC150 < 0.05 μM) |

Results, then the compound that gave them:

| SC150 (concentration of the compound required to increase the DNA binding activity by 50%) | SMILES |
| --- | --- |
| + (+ = 0 μM ≤ SC150 < 0.05 μM) | COc1cc(S(=O)(=O)Nc2ccon2)ccc1NCC#Cc1cc2c(N[C@H]3CC[C@@H](N(C)C)CC3)cccc2n1CC(F)(F)F [Compound 50A, 3-methoxy-N-(1,2-oxazol-3-yl)-4-{[3-(4-{[(1S,4S)-4-(dimethylamino)cyclohexyl]amino}-1-(2,2,2-trifluoro-ethyl)-1H-indol-2-yl)prop-2-yn-1-yl]amino}benzene-1-sulfonamide] |
| + (+ = 0 μM ≤ SC150 < 0.05 μM) | COc1cc(S(=O)(=O)NC2CCOCC2)ccc1NCC#Cc1cc2c(N[C@H]3CC[C@@H](N(C)C)CC3)cccc2n1CC(F)(F)F [Compound 51A, 3-methoxy-N-(oxan-4-yl)-4-{[3-(4-{[(1S,4S)-4-(dimethylamino)cyclohexyl]amino}-1-(2,2,2-trifluoroethyl)-1H-indol-2-yl)prop-2-yn-1-yl]amino}benzene-1-sulfonamide] |
| + (+ = 0 μM ≤ SC150 < 0.05 μM) | COc1cc(S(=O)(=O)Nc2cc(C)on2)ccc1NCC#Cc1cc2c(N[C@H]3CC[C@@H](N(C)C)CC3)cccc2n1CC(F)(F)F [Compound 54A, 3-methoxy-N-(5-methyl-1,2-oxazol-3-yl)-4-{[3-(4-{[(1S,4S)-4-(dimethylamino)cyclohexyl]amino}-l-(2,2,2-trifluoroethyl)-1H-indol-2-yl)prop-2-yn-1-yl]amino}benzene-1-sulfonamide] |
| + (+ = 0 μM ≤ SC150 < 0.05 μM) | COc1cc(S(=O)(=O)Nc2cc(C)on2)ccc1NCC#Cc1cc2c(N[C@H]3CC[C@H](N(C)C)CC3)cccc2n1CC(F)(F)F [Compound 55A, 3-methoxy-N-(5-methyl-1,2-oxazol-3-yl)-4-{[3-(4-{[(1R,4R)-4-(dimethylamino)cyclohexyl]amino}-1-(2,2,2-trifluoroethyl)-1H-indol-2-yl)prop-2-yn-1-yl]amino}benzene-1-sulfonamide] |
| + (+ = 0 μM ≤ SC150 < 0.05 μM) | COCCN(C)[C@H]1CC[C@@H](Nc2cccc3c2cc(C#CCNc2ccc(S(C)(=O)=O)cc2OC)n3CC(F)(F)F)CC1 [Compound 56A, (1S,4S)-N^4-(2-{3-[(4-methanesulfonyl-2-methoxyphenyl)amino]prop-1-yn-1-yl}-1-(2,2,2-trifluoroethyl)-1H-indol-4-yl)-N^1-(2-methoxyethyl)-N^1-methylcyclohexane-1,4-diamine] |
| + (+ = 0 μM ≤ SC150 < 0.05 μM) | COCCN(C)[C@H]1CC[C@H](Nc2cccc3c2cc(C#CCNc2ccc(S(C)(=O)=O)cc2OC)n3CC(F)(F)F)CC1 [Compound 57A, (1R,4R)-N^4-(2-{3-[(4-methanesulfonyl-2-methoxyphenyl)amino]prop-1-yn-1-yl}-1-(2,2,2-trifluoro-ethyl)-1H-indol-4-yl)-N^1-(2-methoxyethyl)-N^1-methylcyclohexane-1,4-diamine] |
| + (+ = 0 μM ≤ SC150 < 0.05 μM) | COc1cc(S(N)(=O)=O)ccc1NCC#Cc1cc2c(N[C@H]3CC[C@@H](N4C[C@H](O)[C@@H](O)C4)CC3)cccc2n1CC(F)(F)F [Compound 58A, 3-methoxy-4-{[3-(4-{[(1S,4S)-4-[(3S,4S)-3,4-dihydroxypyrrolidin-1-yl]cyclohexyl]amino}-1-(2,2,2-trifluoroethyl)-1H-indol-2-yl)prop-2-yn-1-yl]amino}benzene-1-sulfonamide] |
| + (+ = 0 μM ≤ SC150 < 0.05 μM) | COCCN(CCOC)[C@H]1CC[C@H](Nc2cccc3c2cc(C#CCNc2ccc(S(N)(=O)=O)cc2OC)n3CC(F)(F)F)CC1 [Compound 61A, 3-methoxy-4-{[3-(4-{[(1R,4R)-4-[bis(2-methoxyethyl)amino]cyclo-hexyl]amino}-1-(2,2,2-trifluoroethyl)-1H-indol-2-yl)prop-2-yn-1-yl]amino}benzene-1-sulfonamide] |
| + (+ = 0 μM ≤ SC150 < 0.05 μM) | COCCN(CCOC)[C@H]1CC[C@@H](Nc2cccc3c2cc(C#CCNc2ccc(S(N)(=O)=O)cc2OC)n3CC(F)(F)F)CC1 [Compound 62A, 3-methoxy-4-{[3-(4-{[(1S,4S)-4-[bis(2-methoxyethyl)amino]cyclo-hexyl]amino}-1-(2,2,2-trifluoroethyl)-1H-indol-2-yl)prop-2-yn-1-yl]amino}benzene-1-sulfonamide] |
